In one assay the test system is Lyme disease. Kind of assay: Lyme Disease Case Study #2. It counts as in vivo, human. The following applies: treatments before coACT A-B, person. An excerpt:
They worked as a full-time project manager for a non-profit food bank, and lives in the United States. Their symptoms first appeared in August of 2010. When […] was first diagnosed they had skin rashes that were not helped with topical treatments, low-grade fevers, severe migraines, continuous muscle aches, sore throat, stomach pain, joint pains, gynecological issues, and constant fatigue. The initial indication was hives on stomach and back which grew to circular rashes on both thighs, all directly following an insect bite from a horse fly.
From these professionals they were diagnosed not only with Lyme disease, but the following diagnoses and/or misdiagnoses: fibromyalgia, depression, arthritis, pinched nerve, burning mouth syndrome, and mycotoxic poisoning. By May 2011 they were confirmed with Lyme disease and subsequently reconfirmed by another physician in August 2011. Their case of Lyme disease was clinically diagnosed based on lab findings, Western Blot, and symptomatology. […] Tindamax was likewise not tolerated. […] Other anti-fungals caused pain and further reduced their energy levels.
[…] […] They reported climbing the lighthouse stairs in St. Augustine, Fla. without suffering a decrease in energy afterwards, which was atypical for them at that time. […] Kathy has stated that coACT provided them with “a few really good weeks which is invaluable when you haven't functioned normally for some time. For chronic long-term patients, I suspect additional dosing (like every few months or so) is necessary. For newcomers or uncomplicated cases, it could be a bridge to health and healing.

For a further assay, the system named is JCV. Particulars: literature case reports; cited from earlier work.
The next assay concerns chikungunya virus. The following applies: 250 mg/day; cited from earlier work.
The next assay has as its system chikungunya disease. The following applies: cell culture and monkeys; cited from earlier work.

Turning to `Nc1nc2c(ncn2COCCO)c(=O)[nH]1` [Acyclovir], the “outcome of earlier treatments in patient history” value (from here on “outcome of earlier treatments”) in the assay with Lyme disease is given as “caused their symptoms to worsen in that they could not lift their arms”.
Take `CCCSc1ccc2nc(NC(=O)OC)[nH]c2c1` [Albendazole]: the “outcome of earlier treatments” value in the assay on Lyme disease is given as “seemed to help them with passing parasites”.
With `Nc1ccn([C@@H]2O[C@H](CO)[C@@H](O)[C@@H]2O)c(=O)n1` [Cytarabine], the “clinical outcome in PML patients” value in the assay on JCV is listed as “stabilized the neurological condition of a minority of these patients”.
Consider `C[C@@H]1[C@H](O)[C@@H](C)/C=C/C=C/CC/C=C/C=C/C=C/C=C/C(O[C@H]2O[C@H](C)[C@@H](O)[C@H](N)[C@@H]2O)CC2O[C@](O)(CC(O)C(O)CCC(O)CC(O)CC(O)CC(=O)O[C@H]1C)CC(O)C2C(=O)O` (some centres unmarked) [Nystatin], for which the “outcome of earlier treatments” value in the assay with Lyme disease is recorded as “neither of which made any detectable difference”.
On to `CN1CCCN=C1/C=C/c1cccs1.O=C(O)c1cc2ccccc2c(Cc2c(O)c(C(=O)O)cc3ccccc23)c1O` [Pyrantal Pamoate], for which, in the assay on Lyme disease, the “outcome of earlier treatments” value was “helped them to pass parasites in their stool, but left their lifeless, dizzy, and with nystagmus”.
For the molecule `CO/N=C(\C(=O)N[C@@H]1C(=O)N2C(C(=O)O)=C(CSc3nc(=O)c(=O)[nH]n3C)CS[C@H]12)c1csc(N)n1` [Rocephin], the “outcome of earlier treatments” value in the assay on Lyme disease is “helped restore their energy, but caused an allergic reaction”.
As for `CCS(=O)(=O)CCn1c([N+](=O)[O-])cnc1C` [Tindamax], the “outcome of earlier treatments” value in the assay with Lyme disease is “not tolerated”.
In the case of `CCN(CC)CCCC(C)Nc1ccnc2cc(Cl)ccc12` (centres unmarked) [chloroquine phosphate], the “effect on arthritis-like symptoms not relieved by aspirin and NSAID” value with chikungunya virus is listed as “promising results”.
As for `CCN(CC)CCCC(C)Nc1ccnc2cc(Cl)ccc12` (centres unmarked) [chloroquine], in the assay with chikungunya disease, the “reduction of chikungunya disease” value is “no effect”.
Turning to `OC(c1cc(C(F)(F)F)nc2c(C(F)(F)F)cccc12)C1CCCCN1` (centres unmarked) [mefloquine], the “clinical outcome in PML patients” value in the assay on JCV was “seemed to eliminate the virus from the patient's body and prevented further neurological deterioration”.
For the molecule Ivermectin, the “outcome of earlier treatments” value in the assay on Lyme disease is “helped them to pass parasites in their stool, but left their lifeless, dizzy, and with nystagmus”.
